Data on 6 molecules can be found in US12655108B2, “Heterocyclic compound as TYK2 pseudokinase domain inhibitor, synthetic method, and use” (ZHEJIANG WENDA PHARMA TECHNOLOGY LTD., priority 2021, dated 2026).

What is called IC50 is the concentration that gives 50% inhibition. Read a low IC50 as inhibition by little substance.

Experiment [1] has as its system pSTAT5 in CD3+ cells (IFN-α stimulated). In words: Inhibition of IFN-α-induced pSTAT5 expression in CD3+ cells of human whole blood, FACS detection. Format: cell-based. The conditions noted are these: 0.25 h, fresh human whole blood, IFN-α 20 ng/ml, 15 minutes. Here is the method: The Inhibitory Effect of Compounds on the expression of pSTAT5 in CD3+ Cells Using FACS Detection • 1. Experimental Materials and instruments: • 1.1. Experimental reagents • DMSO, Sigma, Cat #D2650-100 ml, stored at room temperature. • Perm buffer III, BD Biosciences, Cat #558050, stored at 4° C. • Lyse/Fix buffer, BD Biosciences, Cat #558049, stored at room temperature. • EDTA, Invitrogen, Cat #15575-038, stored at room temperature. • PBS, Hyclone, Cat #SH30256.01, stored at 4° C. • PE Mouse Anti-Human CD3, BD Biosciences, Cat #555333, stored at 4° C. • Mouse anti-human Phospho-STATS (pY694) (Alexa Fluor® 647 Conjugate), BD Biosciences, Cat #562076, stored at 4° C. • IFN-α, Biolegend, Cat #592702 • 1.2 Experimental consumables • Microplate, 96 Well, PP, v-bottom, Greiner, Cat #GN651201-100EA. • 5 ml polystyrene round bottom tube, FALCON, Cat #04318011. • 96 square well storage plate, Thermo, Cat #AB-0661. • 96-well plate, Corning, Cat #3599. • 1.3 Instruments • CO2 cell incubator: MCO-15AC (Thermo) • Pipette: 0.2-10 μL, 20-200 μL, 200-1000 μL (Thermo) • Multichannel pipette: 0.2-10 μL, 5-50 μL, 20-300 μL (Raining) • Centrifuge: Thermo Centrifuge ST 40R; Thermo LEGEND Micro 21R • Water system: Millipore Milli-Q Reference system • Freezer: Haier ultralow temperature freezer • Haier 4 centigrade refrigerator • Haier −20 centigrade freezer • Vortex: EARTH REQUIRED • Plate Shaker: QI LIN BEI ER; MH-2 • Flow Cytometer: BD FACSVerse™ Flow Cytometer • 2 Experimental method: • 2.1 Compound Dilution • 1) On the day of experiment, the compound was prepared into a 10 mM solution with DMSO, diluted to 1.5 mM with DMSO, and then diluted to 8 gradient concentrations with 3-fold dilutions. • 2) 5 μl of diluted compound was transferred into 120 ul of DPBS solution with 0.1% BSA. • 3) Positive and negative control groups were set up, with an addition of 0.5% DMSO to the positive and negative control groups. • 2.2 Experimental procedure • 1) 67.5 ul of fresh human whole blood was added to the 96-well cell culture plate. • 2) 3.5 ul of diluted compound was added and mixed well. • 3) Incubating in a 37° C. incubator for 60 minutes. • 4) IFN-α was diluted in DPBS containing 0.1% BSA to 400 ng/ml, and PE anti-hCD3 antibody was diluted in DPBS containing 0.1% BSA to 5-fold. After the above 60-minute incubation, diluted PE anti-hCD3 antibody was added at 5 ul per well and diluted IFN-α was added at 4 ul per well, i.e., the final concentration of IFN-α per well was 20 ng/ml. • 5) Incubating in a 37° C. incubator for 15 minutes. • 6) All cells were transferred to a 96-well deep well plate and 1 ml of 37° C. preheated lysis/fix buffer was added. • 7) Incubating at 37° C. in dark for 10 minutes. • 8) Centrifuging at 600 g for 5 minutes and then the supernatant was discarded. Washing by adding 1 ml PBS for twice and centrifuging. • 9) 1 ml of Perm buffer III was added to cell precipitation. • 10) Incubating at 37° C. in dark for 30 minutes. • 11) Centrifuging at 600 g for 5 minutes and then the supernatant was discarded. Washing by adding 1 ml PBS for twice and centrifuging. • 12) APC anti-human pSTAT5 antibody was diluted in staining buffer, and then added to cell wells at 100 ul per well and mixed well. • 13) Incubating at room temperature for 40 minutes. • 14) Staining buffer was added and washed twice, 1 ml for each well, centrifuging at 600 g for 5 minutes. • 15) After discarding the supernatant, the cell precipitation was resuspended in 300 ul of staining buffer. • 16) Sample loading and analysing in a flow cytometer.

The target in experiment [2] is T1, TYK2(JH1) (Homo sapiens, UniProt P29597).
T1 construct: TYK2-JH1 (the kinase domain of TYK2)
T1 sequence (P29597 897-1176 limits assumed): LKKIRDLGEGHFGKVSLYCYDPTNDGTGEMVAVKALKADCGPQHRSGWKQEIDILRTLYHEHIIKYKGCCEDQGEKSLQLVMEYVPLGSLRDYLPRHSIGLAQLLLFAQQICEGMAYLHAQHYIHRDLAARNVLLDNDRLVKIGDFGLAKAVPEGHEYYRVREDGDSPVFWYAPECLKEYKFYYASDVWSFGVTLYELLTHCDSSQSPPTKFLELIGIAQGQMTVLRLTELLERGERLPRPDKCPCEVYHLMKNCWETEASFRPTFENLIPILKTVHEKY
In words: Kinase (JH1) experiment, TYK2(JH1). Format: biochemical. Here is the method: (§1) • 1. Experimental method • 1.1. Pseudokinase (JH2) experiment operation was as follows: • 1.1.1. The compound was dissolved with DMSO to a storage concentration of 10 mM. • 1.1.2. A compound concentration of 200 times the final concentration was prepared in a compound dilution plate, which was diluted from the highest concentration point with a total of 4 concentration points using the 27 times dilution method, and then transferred to the Echo plate. • 1.1.3. The compound was flushed from the Echo plate to the 384 well experimental plate using an Echo instrument, thereby obtaining a total of 11 concentration points of the compound with three-fold dilution matrix. • 1.1.4. 5 ul of TYK2-JH2 or JAK1-JH2 pseudokinase, 3 times the final concentration, was added to the 384-well experimental plate. • 1.1.5. 5 ul of Tb, 3 times the final concentration, was added to the 384-well experimental plate. • 1.1.6. 5 ul of Tracer, 3 times the final concentration, was added to the 384-well experimental plate. • 1.1.7. Centrifuging for 30 seconds and incubating at room temperature for 60 minutes. • 1.1.8. The fluorescence ratio of 520 nm to 495 nm was read using Envision Microplate Reader (PerkinElmer). • 1.2. Kinase (JH1) experiment operation was as follows: • 1.2.1. […] The fluorescence ratio at 665 nm and 615 nm were read using Envision Microplate Reader (PerkinElmer). • 1.3. […]

Experiment [3] has as its target T2, JAK2(JH1) (Homo sapiens, UniProt O60674).
T2 construct: JAK2-JH1 (the kinase domain of JAK2)
Kind of experiment: Kinase (JH1) experiment, JAK2(JH1). Format: biochemical. Here is the method: as §1

For experiment [4], the target named is JAK1(JH2) (Homo sapiens, UniProt P23458). In words: Pseudokinase (JH2) experiment with Tb/Tracer, JAK1-JH2. Format: binding. The method, then:
as §1

The target in experiment [5] is T3, JAK1(JH1) (Homo sapiens, UniProt P23458).
T3 construct: JAK1-JH1 (the kinase domain of JAK1)
In words: Kinase (JH1) experiment, JAK1(JH1). Format: biochemical. The method, then:
as §1

The target of experiment [6] is TYK2(JH2) (Homo sapiens, UniProt P29597). Kind of experiment: Pseudokinase (JH2) experiment with Tb/Tracer, TYK2-JH2. In kind it is binding. Here is the method: as §1
The target in experiment [7] is T4, JAK3(JH1) (Homo sapiens, UniProt P52333).
T4 construct: JAK3-JH1 (the kinase domain of JAK3)
Kind of experiment: Kinase (JH1) experiment, JAK3(JH1). In kind it is biochemical. The method, then: as §1

The mark [8] stands for this setting: selectivity ratio versus TYK2-JH2.

Chain of TYK2(JH2) (P29597 589-875 limits assumed): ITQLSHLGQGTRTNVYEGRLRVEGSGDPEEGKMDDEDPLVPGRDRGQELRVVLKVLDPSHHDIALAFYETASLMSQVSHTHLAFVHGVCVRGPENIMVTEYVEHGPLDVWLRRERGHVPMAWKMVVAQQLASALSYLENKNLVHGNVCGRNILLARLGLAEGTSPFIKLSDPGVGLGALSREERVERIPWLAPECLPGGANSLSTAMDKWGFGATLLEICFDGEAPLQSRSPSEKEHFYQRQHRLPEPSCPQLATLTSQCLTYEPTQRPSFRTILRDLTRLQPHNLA
Chain of JAK1(JH2) (P23458 583-855 limits assumed): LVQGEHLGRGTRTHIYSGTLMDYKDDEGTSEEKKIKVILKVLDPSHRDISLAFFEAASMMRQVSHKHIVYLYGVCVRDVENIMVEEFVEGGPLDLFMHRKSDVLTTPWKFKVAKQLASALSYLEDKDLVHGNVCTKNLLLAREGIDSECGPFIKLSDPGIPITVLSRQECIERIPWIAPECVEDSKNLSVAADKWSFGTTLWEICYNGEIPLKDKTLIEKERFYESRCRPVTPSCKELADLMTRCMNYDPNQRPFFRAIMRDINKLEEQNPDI
T4 sequence (P52333 822-1111 limits assumed): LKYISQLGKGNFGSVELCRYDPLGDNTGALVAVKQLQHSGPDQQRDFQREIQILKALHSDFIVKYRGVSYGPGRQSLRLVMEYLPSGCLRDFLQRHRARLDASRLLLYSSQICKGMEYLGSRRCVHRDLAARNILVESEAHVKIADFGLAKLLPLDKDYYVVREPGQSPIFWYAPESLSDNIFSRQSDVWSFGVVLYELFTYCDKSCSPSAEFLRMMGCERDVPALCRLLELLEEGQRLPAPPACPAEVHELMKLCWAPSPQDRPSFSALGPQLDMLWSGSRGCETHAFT
T2 sequence (O60674 849-1124 limits assumed): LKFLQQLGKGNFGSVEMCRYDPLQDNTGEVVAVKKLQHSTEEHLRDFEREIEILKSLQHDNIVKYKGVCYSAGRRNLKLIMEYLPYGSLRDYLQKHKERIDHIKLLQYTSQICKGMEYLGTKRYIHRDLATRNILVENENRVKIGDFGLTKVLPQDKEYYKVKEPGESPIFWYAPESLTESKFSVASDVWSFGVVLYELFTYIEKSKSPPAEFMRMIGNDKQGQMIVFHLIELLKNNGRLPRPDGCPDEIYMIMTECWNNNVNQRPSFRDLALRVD
T3 sequence (P23458 875-1153 limits assumed): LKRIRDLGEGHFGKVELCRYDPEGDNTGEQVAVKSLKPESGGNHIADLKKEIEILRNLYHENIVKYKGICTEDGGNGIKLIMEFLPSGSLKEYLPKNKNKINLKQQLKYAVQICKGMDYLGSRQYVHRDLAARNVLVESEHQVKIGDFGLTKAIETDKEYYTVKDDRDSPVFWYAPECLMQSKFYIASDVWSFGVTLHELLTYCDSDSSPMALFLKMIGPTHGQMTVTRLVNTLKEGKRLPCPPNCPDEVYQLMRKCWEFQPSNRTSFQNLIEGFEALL

`[2H]C([2H])([2H])NC(=O)c1nnc(NC(=O)C2CC2)cc1Nc1ccccc1S(=O)(=O)C1CC1` [Compound 1] displayed an IC50 in experiment [1] of 2.8 µM.
`[2H]C([2H])([2H])NC(=O)c1nnc(NC(=O)C2CC2)cc1Nc1nccnc1S(=O)(=O)C1CC1` [Compound 2] registered an IC50 in experiment [1] of 0.867 µM.
With `[2H]C([2H])([2H])NC(=O)c1nnc(NC(=O)C2CC2)cc1Nc1ncccc1S(=O)(=O)C1CC1` [Compound 3], the IC50 in experiment [2] (kinase domain) was 4.31 µM; in experiment [3] (kinase domain) it was 2.81 µM; in experiment [4] (pseudokinase domain) it was 0.0531 µM; in experiment [5] (kinase domain) it was 3.19 µM; in experiment [1] it was 0.064 µM; in experiment [6] (pseudokinase domain) it was 0.00032 µM. In experiment [7] (kinase domain), the IC50 is 2.38 µM. For the same molecule, the “IC50Other/IC50TYK2-JH2, TYK2(JH1)” value in experiment [2] (setting [8]) amounted to 13480. In addition, in experiment [3] (setting [8]), the “IC50Other/IC50TYK2-JH2, JAK2(JH1)” value was found to be 8790. In addition, in experiment [4] (setting [8]), the “IC50Other/IC50TYK2-JH2, JAK1(JH2)” value amounted to 166. Besides, the “IC50Other/IC50TYK2-JH2, JAK1(JH1)” value in experiment [5] (setting [8]) came to 9955. In addition, in experiment [6] (reference ratio, TYK2-JH2 versus itself), the “IC50Other/IC50TYK2-JH2, TYK2(JH2)” value is given as 1. The “IC50Other/IC50TYK2-JH2, JAK3(JH1)” value in experiment [7] (setting [8]) was determined as 7432.
For the molecule `[2H]C([2H])([2H])NC(=O)c1nnc(NC(=O)C2CC23CC3)cc1Nc1ncccc1S(=O)(=O)C1CC1` (stereo not drawn) [Compound 4], 0.168 µM corresponded to half-maximal inhibition in experiment [1] (IC50).
Same read-out and setting: the result for `[2H]C([2H])([2H])NC(=O)c1nnc(NC(=O)C2CC23CC3)cc1Nc1nccnc1S(=O)(=O)C1CC1` (stereo not drawn) [Compound 5] reads 2.11 µM; that for `[2H]C([2H])([2H])NC(=O)c1cnc(NC(=O)C2CC2)cc1Nc1ncccc1S(=O)(=O)C1CC1` [Compound 6], 0.128 µM.
